{
  "source": "patent US9951088B2",
  "about": "“D2 receptor modulators and methods of use thereof in the treatment of diseases and disorders” (SUNOVION PHARMACEUTICALS INC., priority 2012, dated 2018)",
  "key": {"[1]": {"target": "T1, long isoform of human D2 receptor (Homo sapiens, UniProt P14416)", "T1 sequence (P14416 whole entry, canonical isoform)": "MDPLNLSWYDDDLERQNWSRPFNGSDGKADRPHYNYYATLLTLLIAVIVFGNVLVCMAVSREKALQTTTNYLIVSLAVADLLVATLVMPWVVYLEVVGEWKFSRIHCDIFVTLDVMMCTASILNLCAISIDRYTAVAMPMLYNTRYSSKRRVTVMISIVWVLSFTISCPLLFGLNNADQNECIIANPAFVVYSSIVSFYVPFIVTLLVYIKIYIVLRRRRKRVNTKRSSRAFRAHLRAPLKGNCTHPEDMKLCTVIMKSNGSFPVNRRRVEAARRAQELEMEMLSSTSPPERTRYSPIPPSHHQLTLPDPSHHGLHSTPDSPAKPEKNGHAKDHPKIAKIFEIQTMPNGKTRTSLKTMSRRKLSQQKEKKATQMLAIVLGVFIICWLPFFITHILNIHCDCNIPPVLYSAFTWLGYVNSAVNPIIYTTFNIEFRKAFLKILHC", "experiment": "Arrestin Agonist Assay (DRD2L PathHunter CHO-K1 cells, β-arrestin recruitment)", "settings": "for Emax: CHO-K1, read-out: β-arrestin (agonist mode) Emax", "protocol": "Cell Lines: Activities of the compounds were assessed using a Chinese Hamster Ovary (CHO—K1) cell line that recombinantly expressed the long isoform of human D2 receptor (DRD2L PathHunter cells). The D2 receptor DNA sequence was modified to contain a “ProLink” at its C-terminus which allowed complementation with an “enzyme acceptor” (EA)-tagged β-arrestin protein. The recruitment of the O-arrestin by the D2 receptor led to complementation of the ProLink and EA and formation of active β-galactosidase which generated a D2-specific signal that was measured.\nArrestin Agonist Assay: One day prior to testing, a vial of high density stock of DRD2L PathHunter cells was thawed, and 1×10^7 cells diluted into 40 mL of growth media (Ham's F12/10% HI FBS/1% PSG). 20 μL cells per well were seeded directly into assay plates, and the plates were allowed to rest for 1 h at RT before incubating in a plate incubator overnight.\n5 μL diluted compound was added to cells in each well, and the assay plate was incubated for 90 min at 37° C. 12.5 μL PathHunter detection reagent was added to each well of the assay plate, which was then covered and incubated for 1 h at RT. The plate was read on an Envision reader using the Luminescence protocol, and the data were exported for analysis.\n(§1) The agonist Emax results were expressed as a percent of the dopamine control response ((measured specific response/control specific agonist response)×100) obtained in the presence of test article. The EC50 values (concentration producing a half-maximal specific response) were determined by non-linear regression analysis of the concentration-response curves."}, "[2]": {"target": "T1, long isoform of human D2 receptor", "experiment": "Arrestin Antagonist Assay (DRD2L PathHunter CHO-K1 cells, vs EC80 dopamine)", "settings": "for Emax: CHO-K1, read-out: β-arrestin (antagonist mode) Imax"}, "[3]": {"target": "T1, long isoform of human D2 receptor", "experiment": "cAMP HTRF Agonist Assay (DRD2L PathHunter CHO-K1 cells, forskolin-stimulated)", "settings": "for Emax: CHO-K1, read-out: cAMP (agonist mode) Emax", "protocol": "Cell Lines: Activities of the compounds were assessed using a Chinese Hamster Ovary (CHO—K1) cell line that recombinantly expressed the long isoform of human D2 receptor (DRD2L PathHunter cells). The D2 receptor DNA sequence was modified to contain a “ProLink” at its C-terminus which allowed complementation with an “enzyme acceptor” (EA)-tagged β-arrestin protein. The recruitment of the O-arrestin by the D2 receptor led to complementation of the ProLink and EA and formation of active β-galactosidase which generated a D2-specific signal that was measured. The cAMP assay was measured in the same D2-expressing cell line. The D2 receptor inhibited cAMP formation so that the basal levels of cAMP were increased by the addition of an adenylate cyclase stimulator, forskolin.\ncAMP HTRF Agonist Assay: Two days prior to testing, a vial of high density stock of DRD2L PathHunter cells was thawed, and cells were diluted into 10 mL of growth media (Ham's F12/10% HI FBS/1% PSG) and used to seed a T225 flask containing 50 mL of growth media. Cells were cultured for 2 days.\nOn the day of the assay, cells were dissociated in 5 mL cell dissociation buffer (enzyme free—Invitrogen) for 10-15 minutes at 37° C. Dissociated cells were diluted with 10 mL of growth media and counted. Cell counts were routinely ˜2×10^7 per T225. Cells were then pelleted at 1500 rpm for 5 min. Supernatant was aspirated, and cells were re-suspended in HBSS/20 mM Hepes, pH 7.4 to a cell density of 1×10^6/mL.\ncAMP levels were determined using the Cisbio HTRF method. HRTF reagents (cAMP-HTRF acceptor fluorophore (d2) conjugate and cryptate-labeled anti-cAMP antibody) were prepared according to maunfacturers instructions. 5 μL of each were added to each well of an assay plate and incubated for 1 h at RT. The plate was then read on an Envision reader using the HTRF protocol, and data were exported for analysis.\nas §1"}},
  "data": [
    {"smiles": "Oc1cccc2ccc(OCCCCN3CCc4cc(C(F)(F)F)ccc4C3)nc12", "note": "[Compound 17, 2-(4-(6-(trifluoromethyl)-3,4-dihydroisoquinolin-2(1H)-yl)butoxy)quinolin-8-ol]", "values": [
      {"measurement": "EC50", "setting": "[1]", "value": "> 10000", "unit": "nM"},
      {"measurement": "Emax", "setting": "[1]", "value": "< 10", "unit": "%"},
      {"measurement": "IC50", "setting": "[2]", "value": "1000 to 10000", "unit": "nM"},
      {"measurement": "Emax", "setting": "[2]", "value": "> 75", "unit": "%"},
      {"measurement": "IC50", "setting": "[3]", "value": "> 10000", "unit": "nM"},
      {"measurement": "Emax", "setting": "[3]", "value": "< 10", "unit": "%"}
    ]},
    {"smiles": "Oc1cccc2ccc(OCCCCN3CCc4ccsc4C3)nc12", "note": "[Compound 19, 2-(4-(4,5-dihydrothieno[2,3-c]pyridin-6(7H)-yl)butoxy)quinolin-8-ol]", "values": [
      {"measurement": "EC50", "setting": "[1]", "value": "> 10000", "unit": "nM"},
      {"measurement": "Emax", "setting": "[1]", "value": "< 10", "unit": "%"},
      {"measurement": "IC50", "setting": "[2]", "value": "1000 to 10000", "unit": "nM"},
      {"measurement": "Emax", "setting": "[2]", "value": "> 75", "unit": "%"},
      {"measurement": "IC50", "setting": "[3]", "value": "> 10000", "unit": "nM"},
      {"measurement": "Emax", "setting": "[3]", "value": "< 10", "unit": "%"}
    ]},
    {"smiles": "CN(C)c1ncnc2c1CCN(CCCCOc1ccc3c(c1)NC(=O)CC3)C2", "note": "[Compound 29, 7-(4-(4-(dimethylamino)-5,6-dihydropyrido[3,4-d]pyrimidin-7(8H)-yl)butoxy)-3,4-dihydroquinolin-2(1H)-one]", "values": [
      {"measurement": "EC50", "setting": "[1]", "value": "100 to 1000", "unit": "nM"},
      {"measurement": "Emax", "setting": "[1]", "value": "25 to 50", "unit": "%"},
      {"measurement": "IC50", "setting": "[2]", "value": "100 to 1000", "unit": "nM"},
      {"measurement": "Emax", "setting": "[2]", "value": "> 75", "unit": "%"},
      {"measurement": "IC50", "setting": "[3]", "value": "10 to 100", "unit": "nM"},
      {"measurement": "Emax", "setting": "[3]", "value": "25 to 50", "unit": "%"}
    ]},
    {"smiles": "N#Cc1cccc2c1CCN(CCCCOc1ccc3ccc(=O)[nH]c3n1)C2", "note": "[Compound 62, 2-(4-((7-oxo-7,8-dihydro-1,8-naphthyridin-2-yl)oxy)butyl)-1,2,3,4-tetrahydroisoquinoline-5-carbonitrile]", "values": [
      {"measurement": "EC50", "setting": "[1]", "value": "< 10", "unit": "nM"},
      {"measurement": "Emax", "setting": "[1]", "value": "50 to 75", "unit": "%"},
      {"measurement": "IC50", "setting": "[2]", "value": "> 10000", "unit": "nM"},
      {"measurement": "Emax", "setting": "[2]", "value": "< 10", "unit": "%"},
      {"measurement": "IC50", "setting": "[3]", "value": "< 10", "unit": "nM"},
      {"measurement": "Emax", "setting": "[3]", "value": "> 75", "unit": "%"}
    ]},
    {"smiles": "O=C1NCCc2ccc(OCCCCN3CCc4cc(F)ccc4C3)nc2N1", "note": "[Compound 84, 8-(4-(6-fluoro-3,4-dihydroisoquinolin-2(1H)-yl)butoxy)-4,5-dihydro-1H-pyrido[2,3-d][1,3]diazepin-2(3H)-one]", "values": [
      {"measurement": "EC50", "setting": "[1]", "value": "> 10000", "unit": "nM"},
      {"measurement": "Emax", "setting": "[1]", "value": "< 10", "unit": "%"},
      {"measurement": "IC50", "setting": "[2]", "value": "10 to 100", "unit": "nM"},
      {"measurement": "Emax", "setting": "[2]", "value": "> 75", "unit": "%"},
      {"measurement": "IC50", "setting": "[3]", "value": "> 10000", "unit": "nM"},
      {"measurement": "Emax", "setting": "[3]", "value": "< 10", "unit": "%"}
    ]},
    {"smiles": "O=C1NCCc2ccc(OCCCCN3CCc4cc(Cl)ccc4C3)nc2N1", "note": "[Compound 85, 8-(4-(6-chloro-3,4-dihydroisoquinolin-2(1H)-yl)butoxy)-4,5-dihydro-1H-pyrido[2,3-d][1,3]diazepin-2(3H)-one]", "values": [
      {"measurement": "EC50", "setting": "[1]", "value": "> 10000", "unit": "nM"},
      {"measurement": "Emax", "setting": "[1]", "value": "< 10", "unit": "%"},
      {"measurement": "IC50", "setting": "[2]", "value": "10 to 100", "unit": "nM"},
      {"measurement": "Emax", "setting": "[2]", "value": "> 75", "unit": "%"},
      {"measurement": "IC50", "setting": "[3]", "value": "> 10000", "unit": "nM"},
      {"measurement": "Emax", "setting": "[3]", "value": "< 10", "unit": "%"}
    ]},
    {"smiles": "Oc1cccc2ccc(OCCCCN3CCc4c(Cl)cccc4C3)nc12", "note": "[Compound 20, 2-(4-(5-chloro-3,4-dihydroisoquinolin-2(1H)-yl)butoxy)quinolin-8-ol]", "values": [
      {"measurement": "EC50", "setting": "[1]", "value": "100 to 1000", "unit": "nM"},
      {"measurement": "Emax", "setting": "[1]", "value": "> 75", "unit": "%"},
      {"measurement": "IC50", "setting": "[2]", "value": "> 10000", "unit": "nM"},
      {"measurement": "Emax", "setting": "[2]", "value": "< 10", "unit": "%"},
      {"measurement": "IC50", "setting": "[3]", "value": "10 to 100", "unit": "nM"},
      {"measurement": "Emax", "setting": "[3]", "value": "50 to 75", "unit": "%"}
    ]}
  ]
}
